{
  "source": "patent US20040048900A1",
  "about": "“Nicotine and/or nicotine agonists for the treatment of general anesthetic effects and side effects” (priority 2002, published 2004)",
  "key": {"[1]": {"tested_on": "analgesic action of nicotine", "settings": "Bitner, 1998; cited from earlier work"}, "mice": {"tested_on": "mice", "text": "Nicotinic acetylcholine receptors are involved in the mechanism of isoflurane hyperalgesia, and nicotinic inhibition could be the initiating event.\nHow could nicotinic inhibition cause hyperalgesia? Nicotine is thought to exert its analgesic action by increasing the release of norepinephrine, serotonin and acetylcholine onto the relay neurons in the dorsal horn of the spinal cord (Rao, 1996; and Reuter, 2000). Isoflurane might reduce pain threshold by inhibiting nicotinic acetylcholine receptors tonically active in potentiating the release of norepinephrine, serotonin and/or acetylcholine. To test the role of the α-adrenergic system, mice were treated systemically with the adrenergic neurotoxin DSP-4 to deplete norepinephrine levels (Jonsson, 1981). The DSP-4 mice 14 days after treatment were tested for HPWL in the presence of isoflurane alone or isoflurane with nicotine pretreatment (see methods).\nTo test the role of muscarinic receptors for acetylcholine, mice were treated with the nonspecific muscarinic antagonist, atropine. A cholinergic neurotoxin could not be used for these studies, because removing all cholinergic neurons would have nicotinic in addition to muscarinic effects. Instead, postsynaptic muscarinic blockade was used. ACh causes analgesia, at least in part due to muscarinic stimulation (Chiari, 1999; Smith, 1989; and Lavand'homme, 1999). […] High concentrations of atropine can block nicotinic acetylcholine receptors as well (Zwart, 1997)."}, "[2]": {"tested_on": "^3H-norepinephrine release from female mouse lumbar spinal cord slice", "assay": "3H-norepinephrine release from superfused spinal cord slice", "settings": "isoflurane 0.38%", "description": "Spinal Cord Slice Preparation: The spinal cord was dissected from the mouse. Under CO2 narcosis the mouse was decapitated. The spinal column was removed and placed into cold dissection solution where the spinal cord was removed with a dissection microscope. The lumbar section of the cord was isolated and imbedded in a 3% low melting point agar (Fisher Scientific) block made in dissection solution. Transverse 400 micrometer slices were made using a Vibratone VT1000S slicing apparatus (Leica, Whetzlar, Germany). Slicing was performed in ice cold Krebs solution bubbled with 5%CO2/95%O2.\nThe cord slices were incubated in a solution of 1 ml of Krebs solution and 10 ul of 1-[7,8-^3H] noradrenaline in a closed environment surrounded by Krebs solution bubbled with CO2/O2 for 30 minutes. The slices were transferred into a superfusion and stimulation chamber (Warner Instruments Inc.,) where Krebs solution was allowed to perfuse over them for 30 minutes at a rate of 0.5 ml/min. The superfusion chamber thermostatically temperature controlled at 37° C. The solutions were pumped to the chamber at a constant rate of 0.5 ml/min using a Kwik-Pump 290 (Long). Following a 30 minute period for equilibration, collections were taken every 1-2.5 minutes. Ecolite scintillation fluid (15 ml) was then added to each collection vial. The samples were analyzed for radioactivity (CPM) using a Packard TRI CARB 2100 TR scintillation counter (Meriden, Conn.).\nDissection Krebs Solution (mM) NaCl 125, KCl 2.5, NaHCO3 26, NaH2PO4-H2O1.25, MgCl2 6,CaCl2 1.5, glucose 2.5. Perfusion Krebs Solution (mM) NaCl 125, KCl 2.5, NaHCO3 26, NaH2PO4—H2O 1.25, MgCl2 1,CaCl2 2, glucose 2.5.\nAfter incubation with ^3H-norepinephrine, the cord slices were perfused with buffer for 30 minutes at 0.5 ml/minute. After equilibration, samples containing released ^3H-norepinephrine were collected at 2.5 minute intervals. After determination of baseline release, the slices were stimulated with 1 mM nicotine in the perfusion buffer."}, "[3]": {"tested_on": "β2 nicotinic knockout male C57/B16 mice", "assay": "HPWL in β2 nicotinic knockout mice", "assay_type": "in vivo", "settings": "vs wild type controls; 0.28% isoflurane, p<0.001", "text": "The subunit composition of the nicotinic receptors responsible for the analgesic effects of nicotinic agonists is controversial. […] Nicotinic antagonists specific for α7 containing nicotinic achetylcholine receptors can be analgesic in some settings (Damaj, 2000). […] The importance of the nicotinic β2 subunit in male C57/B16 mice and their generation matched wild type controls have been tested (a gift from J. P. Changeux, Institute Pasteur)."}, "male and female mice": {"tested_on": "male and female mice", "assay": "HPWL by gender, estrus stage, castration, oophorectomy", "assay_type": "in vivo", "settings": "isoflurane", "method": "The ovary and oviduct was tied with a double 3.0 polysorb suture. The fascia was closed with 3.0 polysorb and the skin with 4.0 nylon. The procedure was repeated on the other side. The mouse was injected with buprenophine 1 mg/kg prior to emergence for pain control.\nEstrogen can directly modulate nicotinic receptors at micromolar concentrations (Paradiso, 2001; Nakazawa, 2001; and Damaj, 2001). Estrogen receptors are co-localized with both nicotinic and muscarinic receptors (Hosli, 2001). Progesterone is inhibitory at nicotinic acetylcholine receptors (Paradiso, 2001; and Damaj, 2001). HPWL was tested at different phases of the female estrus cycle (FIG. 14). […] Oophorectomy (see methods) was performed on six week old female mice. After allowing two weeks for hormonal depletion, and surgical recovery HPWL was again tested.\nFurthermore, testosterone was tested to see if it induced a state resistant to isoflurane hyperalgesia. Male mice were castrated and after two weeks for surgical recovery and hormone depletion, hyperalgesia in response to isoflurane was tested. […] In addition to the classical “female hormones”, female mice also have testosterone that is made by the ovary (Halling, 1989). […] Testosterone levels in females decrease after oophorectomy."}, "female mice": {"tested_on": "female mice", "assay": "MAC and LORR of isoflurane", "assay_type": "in vivo", "text": "Isoflurane causes hyperalgesia in female mice. […] Increased HPWL occurred at concentrations above 0.86% that were associated with sedation. MAC in these animals was 1.5±0.1% and LORR (mean partial pressures bracketing postural response and lack of response to placing the animal in a supine position) occurred at 0.59 +0.2% isoflurane.\n5-28 mice were studied per group."}, "[4]": {"biological_target": "T1, human α4β2 nAChRs expressed in Xenopus oocytes (Homo sapiens, UniProt P17787+P43681)", "T1 construct": "expressed in transfected cells; host or cells: Xenopus laevis oocytes injected with cRNA (1:1 α4 to β2)", "T1 sequence (P43681 29-627 limits assumed)": "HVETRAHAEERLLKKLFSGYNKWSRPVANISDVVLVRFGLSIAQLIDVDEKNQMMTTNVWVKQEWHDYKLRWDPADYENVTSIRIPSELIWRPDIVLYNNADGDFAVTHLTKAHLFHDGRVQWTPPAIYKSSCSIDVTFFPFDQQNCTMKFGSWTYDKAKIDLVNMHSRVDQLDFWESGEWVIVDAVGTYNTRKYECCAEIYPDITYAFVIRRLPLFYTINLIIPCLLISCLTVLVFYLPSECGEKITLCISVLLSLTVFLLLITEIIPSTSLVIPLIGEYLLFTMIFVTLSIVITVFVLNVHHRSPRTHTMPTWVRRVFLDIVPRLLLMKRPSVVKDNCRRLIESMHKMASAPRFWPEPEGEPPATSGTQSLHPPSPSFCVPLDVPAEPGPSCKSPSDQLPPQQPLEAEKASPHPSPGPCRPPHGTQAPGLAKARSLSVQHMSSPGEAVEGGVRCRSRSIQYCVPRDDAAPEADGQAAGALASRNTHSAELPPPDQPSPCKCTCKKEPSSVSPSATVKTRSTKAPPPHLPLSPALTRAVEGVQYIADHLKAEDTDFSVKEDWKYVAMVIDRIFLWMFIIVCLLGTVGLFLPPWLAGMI", "T1 sequence (P17787 26-502)": "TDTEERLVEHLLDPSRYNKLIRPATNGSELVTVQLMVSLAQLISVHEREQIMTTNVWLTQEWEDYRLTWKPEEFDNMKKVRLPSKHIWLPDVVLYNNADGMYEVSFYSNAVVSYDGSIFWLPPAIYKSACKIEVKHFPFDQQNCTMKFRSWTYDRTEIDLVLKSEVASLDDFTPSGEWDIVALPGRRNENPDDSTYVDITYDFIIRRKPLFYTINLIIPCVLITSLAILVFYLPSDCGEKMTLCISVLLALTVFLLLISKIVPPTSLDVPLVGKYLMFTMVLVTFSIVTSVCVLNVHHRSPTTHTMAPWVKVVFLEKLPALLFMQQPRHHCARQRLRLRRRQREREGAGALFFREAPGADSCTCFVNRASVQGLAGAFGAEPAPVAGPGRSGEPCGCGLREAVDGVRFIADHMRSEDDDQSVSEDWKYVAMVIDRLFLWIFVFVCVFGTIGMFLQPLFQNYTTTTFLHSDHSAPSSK", "assay": "Two-microelectrode voltage clamp of ACh-activated currents in Xenopus oocytes", "assay_type": "cell-based", "method": "The human α4 and β2 type nAChRs were in a pSP64 expression vector. Standard techniques were used to linearize the vectors and use them as templates to make cRNA using SP6 as the polymerase. The human nicotinic clones were a gift from Dr. Jon Lindstrom, Ph.D. (Department of Neuroscience, University of Pennsylvania, Philadelphia, Pa.).\nXenopus laevis oocytes were removed from the females and defolliculated with collagenase. After the oocytes rested for 24 hours in L-15 oocyte medium, about 10 ng of a 1:1 ratio of α4 to β2 cRNA were injected into individual oocytes. A manual injector was used for this process (Nanoject; Drummond Scientific, Broomall, Pa.). The oocytes were incubated for 2-5 days in ND-96 medium (NaCl 96 mM, KCl 2 mM, MgCl2 1 mM, CaCl2 H2O 1.8 mM, HEPES 5 mM, Na-pyruvate 2.5 mM, theophylline 0.5 mM, and 10mg/L of gentamicin, adjusted to pH 7.5).\nWhole oocytes were used to record currents using a Gene-Clamp 500 two-microelectrode voltage-clamp amplifier with an active ground (Axon Instruments, Inc., Foster, Cailf.). The recording electrodes were pulled from glass capillary tubing (Drummond, Broomall, Pa.) to obtain a resistance between 1 and 5 MΩ and filled with 3M KCl. Ba^2 Ringer's solution was used as the extracellular solution in order to avoid current amplification by calcium activated chloride currents (115 mM NaCl, 2.5 mM KCl, 1.8 mM BaCl2, 10 mM HEPES, 1 μM atropine, pH 7.4). Atropine was included to avoid activation of intrinsic muscarinic receptors. Experiments were performed at room temperature. Isoflurane was prepared from a saturated solution by serial dilution. Concentrations were verified by gas chromatography.\nOocytes were tested at a membrane potential of −60 mV. Bolus application of the agonist +/− indicated antagonist(s) was applied at a rate of 4 ml/min for a 2 second application.\nAntagonists were pre-applied for 2 minutes prior to activation. Concentration response curves were made from the percent change in peak current from ACh activation in the presence of antagonist(s), compared to ACh alone. As the ACh concentration at central neuronal nAChRs is unknown, 1 mM ACh (saturating) was used to detect inhibition by isoflurane and mecamylamine experiments with mecamylamine. ACh 2 μM was used to detect potentiation by nicotine. Currents were measured in 5-8 cells for each data point. Clampex 7 (Axon instruments, Foster City, Calif.) was used for data acquisition.\nMicrocal Origins 5.0 (Microcal, Northampton, Mass.) was used for statistical calculations and graphical presentation. The in vitro data were fit to a modified Hill equation, y=100/(1+(x/IC50)^n), where IC50 is the concentration of drug at which of 50% of the response is inhibited and n is the Hill coefficient."}},
  "note": "Values joined by “and” are separate entries in the source; they are usually repeats but may differ in a detail not shown here. Equal values may be shown once. “Also recorded” adds a separate entry of the source.",
  "data": [
    {"smiles": "C[N+](C)(C)CCCCCC[N+](C)(C)C", "note": "[Hexamethonium]", "values": [
      {"measurement": "effect on the analgesic action of nicotine", "setting": "[1]", "result": "has no effect on the analgesic action of nicotine"}
    ]},
    {"smiles": "FC(F)OC(Cl)C(F)(F)F", "note": "(centres unmarked) [isoflurane]", "values": [
      {"measurement": "hyperalgesic effect after norepinephrine depletion", "setting": "mice; isoflurane, mice 14 days after DSP-4", "result": "no hyperalgesic effect at any subanesthetic concentration"},
      {"measurement": "isoflurane concentration that caused maximal hyperalgesia", "setting": "mice; mouse, in vivo", "result": 0.38, "unit": "%"},
      {"measurement": "basal norepinephrine release", "setting": "[2]", "result": "basal norepinephrine release was reduced"},
      {"measurement": "nicotine facilitated norepinephrine release", "setting": "[2]; 1 mM nicotine", "result": "no facilitation by nicotine"},
      {"measurement": "hyperalgesic effect of isoflurane in β2 nicotinic knockout mice", "setting": "[3]", "result": "clearly reduced in these animals, but not absent; also recorded: Hyperalgesia was reduced"},
      {"measurement": "hyperalgesic response after oophorectomy", "setting": "male and female mice; female mice two weeks after oophorectomy", "result": "more pronounced"},
      {"measurement": "hyperalgesic effect by estrus stage", "setting": "male and female mice; high estrogen (stages 2 and 3) and high progesterone (stage 5)", "result": "less hyperalgesic effect during these stages"},
      {"measurement": "hyperalgesic response in male mice", "setting": "male and female mice; intact males", "result": "less than that in females"},
      {"measurement": "hyperalgesic response in castrated males", "setting": "male and female mice; two weeks after castration", "result": "increased hyperalgesic responses to isoflurane compared to intact males"},
      {"measurement": "MAC", "setting": "female mice; isoflurane in these mice", "result": "1.4% and 1.5±0.1%"},
      {"measurement": "LORR", "setting": "female mice; mean partial pressures bracketing postural response and lack of response to supine placement", "result": "0.59 +0.2%"},
      {"measurement": "mode of antagonism at heteromeric nAChRs", "setting": "[4]", "result": "non-competitive antagonists"},
      {"measurement": "IC50", "setting": "[4]; 1 mM ACh, −60 mV, room temperature, read-out: IC50 for inhibition of α4β2 nAChR", "result": 44, "unit": "µM"}
    ]}
  ]
}
